Assay results reported in publication PMC12379159 (Journal of Natural Products, 2025).

Target: T1, hRORγ LBD (Homo sapiens, UniProt P51449)
T1 construct: His tag (N, cleaved yes); made in house; host or cells: Escherichia coli BL21 DE3
T1 sequence (P51449 264-518): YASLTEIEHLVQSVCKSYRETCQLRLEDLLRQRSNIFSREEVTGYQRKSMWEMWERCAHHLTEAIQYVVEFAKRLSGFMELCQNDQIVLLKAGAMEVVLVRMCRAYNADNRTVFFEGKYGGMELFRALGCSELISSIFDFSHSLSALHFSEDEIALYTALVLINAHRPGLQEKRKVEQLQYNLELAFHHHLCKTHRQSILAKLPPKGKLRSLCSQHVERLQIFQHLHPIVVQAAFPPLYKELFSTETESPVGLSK
Assay: Thermal stability by nano differential scanning fluorimetry (nanoDSF)
Type: binding
Conditions: RORγ-LBD with 4 equiv ligand vs without ligand; mean ± SD
Protocol: Soluble proteins were purified on Ni Hitrap FFcrude column (Cytiva), followed by His tag removal by thrombin (MP Biomedicals) cleavage and by size exclusion chromatography on HiLoad Superdex200 column (Cytiva) equilibrated in 20 mM Tris-HCl pH 7.5, 150 mM NaCl, 1 mM TCEP (Hampton Research). Purity and homogeneity of the hRORγ LBD were assessed by SDS-PAGE. The purified protein was concentrated to 0.5–1.0 mg/mL with an Amicon Ultra 10 kDa MWCO. The aliquots of purified LBD were incubated with 4 equiv ligands or vehicle for thermal stability experiments.
Fluorescence-based thermal experiments were performed using a Prometheus NT.48 (NanoTemper Technologies, Germany) with grade standard capillaries containing 10 μL of RORγLBD with different ligands. […] NanoTemper PR. Stability Analysis v1.0.2 was used to fit the data and determine the melting temperatures Tm.

C=C(C)[C@@H]1CC[C@]2(C(=O)O)CC[C@]3(C)[C@H](CC[C@@H]4[C@@]5(C)C/C(=C/c6ccco6)C(=O)C(C)(C)[C@@H]5CC[C@]43C)[C@@H]12 [Compound 15, (2Z)-2-(2-furanylmethylene)-3-oxolup-20(29)-en-28-oic acid]
ΔTm measured with nano differential scanning fluorimetry: 9.6 ± 0.4 °C
